Values quoted from earlier work as cited in publication PMC5931096, “A Phase I study of the novel immunomodulatory agent PG545 (pixatimod) in subjects with advanced solid tumours” (British Journal of Cancer, 2018).

System: tumour-associated macrophages (TAM)
Design: method as in PMID 24970482, PMID 23696215
Settings: preclinical cancer models; cited from earlier work

CC(C)CCC[C@@H](C)[C@H]1CC[C@H]2[C@@H]3CC[C@H]4C[C@@H](O[C@@H]5O[C@H](COS(=O)(=O)O)[C@@H](O[C@H]6O[C@H](COS(=O)(=O)O)[C@@H](O[C@H]7O[C@H](COS(=O)(=O)O)[C@@H](O[C@H]8O[C@H](COS(=O)(=O)O)[C@@H](OS(=O)(=O)O)[C@H](OS(=O)(=O)O)[C@H]8OS(=O)(=O)O)[C@H](OS(=O)(=O)O)[C@H]7OS(=O)(=O)O)[C@H](OS(=O)(=O)O)[C@H]6OS(=O)(=O)O)[C@H](OS(=O)(=O)O)[C@H]5OS(=O)(=O)O)CC[C@]4(C)[C@H]3CC[C@]12C [PG545]
Inhibition of tumour-associated macrophages (TAM): potently inhibit
